# Assay results from patent US20210220392A1, “MOLECULAR HYDROGEN-CONTAINING COMPOSITION FOR PREVENTION AND/OR IMPROVEMENT OF INFLAMMATORY BOWEL DISEASE” (MiZ Company Limited, priority 2020, published 2021).
# Columns and labels:
# [1] = known; versus H2; cited from earlier work
# ulcerative colitis = assay: A case of ulcerative colitis improved by hydrogen inhalation (single patient case report); type: in vivo, human
# Method: From around January 2018, the patient was taking a therapeutic agent for ulcerative colitis but was distressed because the disease was not cured with cyclic improvement and worsening. Additionally, the patient became depressed and gloomy, suffering insomnia and weight loss, because of the prolonged symptoms of ulcerative colitis. […] The patient drank two 500 mL PET bottles of hydrogen water per day.
# [2] = room temperature, normal pressure; also printed as 1.6 mg/L; cited from earlier work
# [3] = around June 9, six days after initiation of hydrogen gas inhalation plus hydrogen water
Structure (SMILES),superoxide eliminating effect compared with H2 [1],general condition (ulcerative colitis; [3]),sleep condition (ulcerative colitis; [3]),"body weight (ulcerative colitis; by Aug. 22, 2019)","hemorrhage (ulcerative colitis; by Aug. 22, 2019 (end of inhalation therapy))","hemorrhage (ulcerative colitis; by Jul. 31, 2019)","frequency of defecation and patient's vigor (ulcerative colitis; by Jun. 17, 2019)","stool consistency (had been watery) (ulcerative colitis; by Jun. 17, 2019)","hemorrhage during defecation (ulcerative colitis; by Jun. 17, 2019 (inhalation started Jun. 3, 2019))","endoscopy: hemorrhage in the rectum (had been filled with blood) (ulcerative colitis; endoscopy on Sep. 25, 2019)","endoscopy: wall of the small and large intestines (ulcerative colitis; endoscopy on Sep. 25, 2019)","endoscopy: several polyps found in the stomach (ulcerative colitis; endoscopy on Sep. 25, 2019, inhalation of hydrogen gas and drinking of hydrogen water)","volume of melena during defecation (ulcerative colitis; person, ulcerative colitis, around June 9, six days after initiation of hydrogen gas inhalation (approx. 5.0%, 1-3 h/day) plus hydrogen water 7 ppm, two 500 mL bottles/day)",concentration of hydrogen dissolved in water [2]
"[2H][2H] [D2, deuterium]",stronger,–,–,–,–,–,–,–,–,–,–,–,–,–
"[HH] [hydrogen gas, molecular hydrogen]",–,recovered,improved,increased to the healthy weight before the onset of the disease,no hemorrhage was found,no hemorrhage was found except that blood was attached to the stool only on the day after the patient had drunk alcohol,returned to the levels before the onset of the disease,became solid,further decreased,no hemorrhage in the rectum,recovered completely,disappeared,began to decrease,approximately 1.6 ppm
